Test results from patent publication US20090326441A1, “Ultrasonic Enhanced Microneedles” (AGENCY FOR SCIENCE ,TECHNOLOGY AND RESEARCH, priority 2006, published 2009).

Test: Penetration of calcein through pig skin in Franz cell test device
Type: in vitro ADME
Settings: calcein solution 1 mmol, 0.523 mg/ml, receiving liquid PBS, 37° C., FIG. 9
Experimental: An injection device according to the present invention was constructed as described above. Testing was performed using calcein on pig skin, using the apparatus in FIG. 8. The graph of FIG. 9 presents the results of testing in three different situations: without enhancers, with hollow microneedles and using the method of the present invention, using microneedles with ultrasonic enhancement. With reference to FIG. 8, test device 10 comprises injection device 20 which has been applied to skin sample 30. Pig skin sample 30 communicates with a receiving liquid in receiving chamber 40. Arm 50 is provided to chamber 40 for inserting or withdrawing the receiving liquid. Chamber 40 is located in Franz cell 60, which comprises a water bath 65 and inlet and outlet ports 70 and 75 respectively for maintaining the receiving liquid at a constant temperature. Sample chamber 80 is provided for holding a test sample. […]
In order to conduct the test using test device 10, calcein solution (1 mmol, 0.523 mg/ml) was placed in chamber 80 so as to supply the solution to device 20, and a receiving liquid (PBS: phosphate buffered saline) was loaded into chamber 40. […] The concentration of calcein in the receiving liquid was then monitored by withdrawing aliquots from arm 50 and analysing them. […]

transport of calcein across the skin sample (microneedles and ultrasound (20 kHz, 0.5 Wcm^−2), compared with microneedles alone): enhanced | transport of calcein across the skin sample (microneedles, no ultrasound, compared with no microneedles (without enhancers)): improvement
SMILES: O=C(O)CN(CC(=O)O)Cc1cc2c(cc1O)Oc1cc(O)c(CN(CC(=O)O)CC(=O)O)cc1C21OC(=O)c2ccccc21 [calcein]
